The source made the active and inactive calls.
Experiments:
[1] = biological target: T1, Corticotropin-releasing factor receptor 2/Corticotropin-releasing factor-binding protein (Homo sapiens, UniProt P24387+Q13324); assay: activators of CRF receptor 2 with binding protein – uHTS hits, confirmation (AID 602473); format: functional; conditions: read-out: EC50_Mean
T1 sequence (Q13324 whole entry): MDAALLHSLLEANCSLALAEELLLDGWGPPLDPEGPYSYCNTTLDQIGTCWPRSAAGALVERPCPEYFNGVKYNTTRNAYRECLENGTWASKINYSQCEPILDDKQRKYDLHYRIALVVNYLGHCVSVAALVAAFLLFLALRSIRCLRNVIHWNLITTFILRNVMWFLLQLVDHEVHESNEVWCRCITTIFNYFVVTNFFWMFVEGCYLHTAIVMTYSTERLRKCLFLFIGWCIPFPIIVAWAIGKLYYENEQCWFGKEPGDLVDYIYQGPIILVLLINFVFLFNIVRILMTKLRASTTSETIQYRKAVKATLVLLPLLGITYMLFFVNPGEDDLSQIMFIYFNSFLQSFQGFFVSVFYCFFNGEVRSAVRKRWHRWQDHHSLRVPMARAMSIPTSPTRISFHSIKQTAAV
T1 sequence (P24387 whole entry): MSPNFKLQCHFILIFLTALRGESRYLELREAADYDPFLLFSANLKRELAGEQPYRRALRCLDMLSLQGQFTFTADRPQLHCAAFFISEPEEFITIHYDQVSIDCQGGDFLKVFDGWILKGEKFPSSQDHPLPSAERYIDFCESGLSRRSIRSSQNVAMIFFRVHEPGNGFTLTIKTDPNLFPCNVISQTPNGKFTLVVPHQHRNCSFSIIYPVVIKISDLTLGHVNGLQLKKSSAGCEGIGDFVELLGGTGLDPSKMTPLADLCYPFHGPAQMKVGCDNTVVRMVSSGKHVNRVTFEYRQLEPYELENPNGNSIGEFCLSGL

[2] = biological target: T1, Corticotropin-releasing factor receptor 2/Corticotropin-releasing factor-binding protein; assay: Dose Response confirmation of uHTS hits for small molecule antagonists of the CRF-binding protein and CRF-R2 receptor complex.; format: functional; conditions: read-out: IC50_Mean
H9c2 = assay: cells; format: functional, cell-based; conditions: Rattus norvegicus, H9c2, Myocardium;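 also: confirmatory concentration-response retest of ultra-high-throughput screening hits for modulation of myocardial damage; cell death induced by hydrogen peroxide oxidative stress; compound pretreatment for 60 min then peroxide exposure for 2 h; potency is for protecting the cells against peroxide damage rather than for killing them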
[3] = Luminescence Cell-Based Dose Response HTS to Identify Inhibitors of 5'UTR Stem-Loop Driven Prion Protein mRNA Translation in H4 Neuroglioblastoma Cells. [Related pubchem assays: 1827 (Project Summary), 1813 (Primary HTS)]; format: functional
Streptococcus = assay: GAS UMAA2166 growth inhibition – luminescence, BacTiterGlo, counter-screen for streptokinase expression inhibitor project, dose response (AID 1915); format: functional, organism-based;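 also: potency for reduction of bacterial viability or growth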
[4] = test system: Streptococcus sp. 'group A'; assay: Streptococcus pyogenes SK(-)GAS viability under kanamycin – luminescence, BacTiterGlo, confirmation, counter-screen for streptokinase expression inhibitor project, dose response (AID 1900); format: functional, organism-based
[5] = alpha-synuclein stem-loop luciferase translation blockers – H4 neuroglioma cells, luminescence, confirmation (AID 1988); format: functional, cell-based
[6] = luciferase reporter signal suppression in cells – H4 neuroglioma cells, luminescence, dose response (AID 1990); format: functional, cell-based
Streptokinase A = biological target: T2, Streptokinase A (Streptococcus pyogenes serotype M1, UniProt P10520); assay: viability-normalized secreted streptokinase activity reduction – plasminogen activation absorbance, OD405, dose response (AID 1914); format: functional, Streptococcus pyogenes M1 GAS;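 also: secreted streptokinase activity via plasminogen activation per viability signal from cell pellet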
T2 sequence (P10520 whole entry): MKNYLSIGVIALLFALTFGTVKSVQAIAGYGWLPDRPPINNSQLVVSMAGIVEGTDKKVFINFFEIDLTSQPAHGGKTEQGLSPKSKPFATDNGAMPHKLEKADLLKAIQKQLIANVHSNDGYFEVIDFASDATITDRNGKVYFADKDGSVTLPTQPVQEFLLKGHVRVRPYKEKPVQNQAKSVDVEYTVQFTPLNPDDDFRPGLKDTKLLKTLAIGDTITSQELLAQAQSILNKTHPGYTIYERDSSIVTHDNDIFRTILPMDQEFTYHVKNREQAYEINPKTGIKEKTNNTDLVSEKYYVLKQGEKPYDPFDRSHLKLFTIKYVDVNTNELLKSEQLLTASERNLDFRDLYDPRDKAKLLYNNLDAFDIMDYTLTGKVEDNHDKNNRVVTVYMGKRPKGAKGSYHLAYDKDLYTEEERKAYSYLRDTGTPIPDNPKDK

[7] = Luminescence Cell-Based Dose Retest to Confirm Inhibitors of Cancer Stem Cells. [Related pubchem assays (depositor defined):AID2717, AID2721]; format: functional; conditions: Homo sapiens
[8] = biological target: FAD-linked sulfhydryl oxidase ALR (Homo sapiens, UniProt P55789); assay: ALR-catalysed DTT oxidation blockers – biochemical, H2O2 detection, luminescence, cherry-pick, dose response (AID 493248)
INS1 = assay: INS-1E survival protection against cytokine death – cell-based, luminescence, retest, dose response (AID 449756); format: functional; conditions: Rattus norvegicus;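 also: cell death triggered by IL-1 beta plus TNF-alpha plus IFN-gamma mixture; protective hits raise ATP signal compared with cytokine alone wells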
Cytochrome P450 1A2 = biological target: T3, Cytochrome P450 1A2 (Homo sapiens, UniProt P05177);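 also: PubChem cytochrome P450 panel assay, CYP1A2 panel member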
T3 sequence (P05177 whole entry): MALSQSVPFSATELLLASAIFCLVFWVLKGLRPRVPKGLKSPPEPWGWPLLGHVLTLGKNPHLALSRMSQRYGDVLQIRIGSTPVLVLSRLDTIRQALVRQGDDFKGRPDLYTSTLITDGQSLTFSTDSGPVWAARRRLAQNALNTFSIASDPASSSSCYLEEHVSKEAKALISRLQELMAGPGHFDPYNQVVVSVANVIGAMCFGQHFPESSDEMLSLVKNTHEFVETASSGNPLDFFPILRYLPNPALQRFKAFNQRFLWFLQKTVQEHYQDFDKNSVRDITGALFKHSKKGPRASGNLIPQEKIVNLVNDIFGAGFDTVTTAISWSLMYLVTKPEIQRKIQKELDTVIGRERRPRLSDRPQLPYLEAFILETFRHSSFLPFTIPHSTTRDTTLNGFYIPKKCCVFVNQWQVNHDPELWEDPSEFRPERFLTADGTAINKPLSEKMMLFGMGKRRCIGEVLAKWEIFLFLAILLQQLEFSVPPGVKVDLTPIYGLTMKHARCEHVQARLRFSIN

Cytochrome P450 3A4 = Cytochrome P450 3A4 (Homo sapiens, UniProt P08684);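 also: CYP3A4 tested as one member of a cytochrome P450 panel screen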
Cytochrome P450 2D6 = Cytochrome P450 2D6 (Homo sapiens, UniProt P10635);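 also: CYP2D6 member of a cytochrome P450 panel assay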
Cytochrome P450 2C9 = Cytochrome P450 2C9 (Homo sapiens, UniProt P11712)
[9] = Trypanosoma cruzi growth suppression in host cells – NIH3T3 host cells, beta-gal luminescence, confirmation (AID 2044); format: functional, cell-based;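 also: intracellular parasites grown in NIH/3T3 mouse fibroblasts as host cells; luminescent beta-galactosidase reporter signal from transgenic T. cruzi replicating inside host cells; inhibitors lower the luminescence signal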
[10] = NIH3T3 cell viability loss – ATP luminescence, mouse fibroblasts, counter-screen, dose response (AID 2010); format: functional, cell-based;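 also: cells exposed to compound for about 90 hours before reading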
Cytochrome P450 2C19 = Cytochrome P450 2C19 (Homo sapiens, UniProt P33261); assay: Cytochrome panel assay with activity outcomes. Panel member name: p450-cyp2c19 Compounds with AC50 equal or less than 10 uM are considered active; format: functional; conditions: read-out: AC50
Cytochrome P450 2C19, sequence (P33261 whole entry): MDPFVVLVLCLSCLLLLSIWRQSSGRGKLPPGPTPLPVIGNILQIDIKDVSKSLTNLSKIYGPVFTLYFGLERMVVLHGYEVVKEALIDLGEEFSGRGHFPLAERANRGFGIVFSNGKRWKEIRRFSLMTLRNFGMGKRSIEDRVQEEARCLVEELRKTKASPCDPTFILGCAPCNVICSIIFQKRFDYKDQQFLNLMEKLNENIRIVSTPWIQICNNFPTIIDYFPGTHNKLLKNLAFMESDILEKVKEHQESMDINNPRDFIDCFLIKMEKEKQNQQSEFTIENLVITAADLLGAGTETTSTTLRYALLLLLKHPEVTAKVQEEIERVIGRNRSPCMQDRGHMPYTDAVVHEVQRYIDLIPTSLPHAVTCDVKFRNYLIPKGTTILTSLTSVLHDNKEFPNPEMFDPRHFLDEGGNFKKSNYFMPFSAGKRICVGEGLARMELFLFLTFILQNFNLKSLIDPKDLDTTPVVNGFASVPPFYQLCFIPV

FAD-linked sulfhydryl oxidase ALR, sequence (P55789 whole entry): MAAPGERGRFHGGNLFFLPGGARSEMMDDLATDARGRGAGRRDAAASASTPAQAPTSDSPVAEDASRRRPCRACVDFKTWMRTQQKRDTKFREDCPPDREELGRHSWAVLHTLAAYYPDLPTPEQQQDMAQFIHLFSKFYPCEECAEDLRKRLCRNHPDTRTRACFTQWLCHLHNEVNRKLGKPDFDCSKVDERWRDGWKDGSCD
Cytochrome P450 3A4, sequence (P08684 whole entry): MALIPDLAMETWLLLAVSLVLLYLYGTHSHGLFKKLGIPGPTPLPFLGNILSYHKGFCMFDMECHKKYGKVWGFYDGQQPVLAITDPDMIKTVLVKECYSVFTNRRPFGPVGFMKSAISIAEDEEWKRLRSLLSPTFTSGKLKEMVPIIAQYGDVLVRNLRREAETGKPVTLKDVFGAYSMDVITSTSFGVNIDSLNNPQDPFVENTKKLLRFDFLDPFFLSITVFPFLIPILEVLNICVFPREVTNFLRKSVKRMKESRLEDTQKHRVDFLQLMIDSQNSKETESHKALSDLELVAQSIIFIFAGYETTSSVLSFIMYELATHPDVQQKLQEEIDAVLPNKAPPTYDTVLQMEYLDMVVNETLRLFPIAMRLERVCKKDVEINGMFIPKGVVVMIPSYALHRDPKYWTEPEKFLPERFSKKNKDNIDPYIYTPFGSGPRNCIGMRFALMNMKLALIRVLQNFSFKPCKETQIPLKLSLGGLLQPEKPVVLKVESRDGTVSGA
Cytochrome P450 2D6, sequence (P10635 whole entry): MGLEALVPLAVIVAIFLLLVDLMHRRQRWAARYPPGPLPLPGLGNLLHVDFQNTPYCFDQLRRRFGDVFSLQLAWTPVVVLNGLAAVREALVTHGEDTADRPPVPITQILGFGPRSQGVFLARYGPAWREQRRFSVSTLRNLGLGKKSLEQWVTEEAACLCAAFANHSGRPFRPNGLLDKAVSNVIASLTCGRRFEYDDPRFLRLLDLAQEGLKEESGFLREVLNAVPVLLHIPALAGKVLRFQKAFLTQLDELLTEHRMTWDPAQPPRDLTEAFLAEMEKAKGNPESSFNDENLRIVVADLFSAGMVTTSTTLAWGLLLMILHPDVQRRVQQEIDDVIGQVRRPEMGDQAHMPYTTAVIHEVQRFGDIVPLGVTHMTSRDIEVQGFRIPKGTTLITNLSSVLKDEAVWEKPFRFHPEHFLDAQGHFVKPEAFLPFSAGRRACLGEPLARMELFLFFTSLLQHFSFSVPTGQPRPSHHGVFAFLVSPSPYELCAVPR
Cytochrome P450 2C9, sequence (P11712 whole entry): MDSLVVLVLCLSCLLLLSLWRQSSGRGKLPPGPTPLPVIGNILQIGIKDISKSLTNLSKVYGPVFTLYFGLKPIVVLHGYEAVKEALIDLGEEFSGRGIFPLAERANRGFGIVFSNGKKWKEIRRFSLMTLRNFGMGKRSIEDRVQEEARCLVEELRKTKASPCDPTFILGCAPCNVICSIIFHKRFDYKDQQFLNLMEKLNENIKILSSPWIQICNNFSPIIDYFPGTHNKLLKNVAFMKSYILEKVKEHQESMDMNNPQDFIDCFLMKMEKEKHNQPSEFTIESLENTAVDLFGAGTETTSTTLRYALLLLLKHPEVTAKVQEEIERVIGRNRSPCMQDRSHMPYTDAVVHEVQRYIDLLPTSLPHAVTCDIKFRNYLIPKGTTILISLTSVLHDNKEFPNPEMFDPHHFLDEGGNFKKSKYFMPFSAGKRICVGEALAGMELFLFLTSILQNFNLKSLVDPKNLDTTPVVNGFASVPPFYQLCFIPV

Cc1ccc(Cn2c(SCC(=O)NCC3CCCO3)nc3ccsc3c2=O)cc1 (stereo unspecified)
EC50 [1]: > 53 µM (inactive)
IC50 [2]: > 47.1 µM (inactive)

Cc1cccc(C(C)C)c1NC(=O)C(C)OC(=O)Cc1nnc(O)c2ccccc12 (stereo unspecified)
IC50 (H9c2): 21.1 µM (active)

Cn1c(=O)[nH]c(=O)c2c1nc(N1CCC(Cc3ccccc3)CC1)n2Cc1ccccc1
EC50 [3]: > 120 µM (not active)
EC50 (Streptococcus): > 150 µM (not active)
EC50 [4]: 4.39 µM (active)
EC50 [5]: 56.4 µM (active)
EC50 [6]: 19.4 µM (active)
EC50 (Streptokinase A): 18 µM (active)

CC(=O)Oc1ccc(C(=O)Nc2ccc(C3(C#N)CCCC3)cc2)cc1
AC50 [7]: 1.83 µM (active)

COc1ccc(-c2cc(C(=O)Nc3ccccc3N3CCOCC3)c3ccccc3n2)cc1OC
IC50 (H9c2): > 79 µM (inactive)

CCN(CC)c1ccc(/C=N/NC(=O)c2cccc(N3CCCC3=O)c2)cc1
AC50 [8]: 2.14 µM (active)

CCN(c1ccc(NC(=O)COC(=O)c2ccc([N+](=O)[O-])o2)cc1)C(C)C
IC50 (H9c2): > 79 µM (inactive)

Cc1c(C(=O)NCCCN2CCCCC2)oc2ccc3c(c12)C(O)CC1(CCCCC1)O3 (stereo unspecified)
EC50 [3]: > 120 µM (not active)
EC50 [5]: > 120 µM (not active)
EC50 [6]: > 120 µM (not active)

COc1ccc(-c2nn(-c3ccccc3)cc2/C=C(\C#N)S(=O)(=O)c2ccccc2)cc1OC
EC50 [1]: > 53 µM (inactive)
IC50 [2]: > 47.1 µM (inactive)

CCN(CC)c1ccc(CN2CCCCCC2)cc1
AC50 [8]: 3.84 µM (active)

Cc1ccc(/N=C2\C=C(O)C(=O)c3ccccc32)c(C)c1
AC50 (INS1): 2.06 µM (active)

O=C(NCC(c1cccnc1)N1CCN(c2ccccc2)CC1)C1CCCCC1 (stereo unspecified)
AC50 [8]: 19.4 µM (active)

O=C(NCc1ccco1)C(c1ccccc1)N(C(=O)Cc1cccs1)c1ccccc1F (stereo unspecified)
IC50 (H9c2): > 79 µM (inactive)

Cc1ccccc1CN(C)CC(=O)Nc1cccc(S(=O)(=O)N(C)c2ccccc2)c1
EC50 [3]: > 120 µM (not active)
EC50 [5]: > 120 µM (not active)
EC50 [6]: > 120 µM (not active)

COc1ccc(CCNC(=O)c2cc3c(=O)n4cccc(C)c4nc3n(Cc3ccco3)c2=N)cc1OC
AC50 (INS1): 8.24 µM (active)

CCOC(=O)c1[nH]c2ccccc2c1NC(=O)c1ccc(S(=O)(=O)N2CCCCC2)cc1
EC50 [3]: > 120 µM (not active)
EC50 [5]: 83.1 µM (active)
EC50 [6]: 18.7 µM (active)

Cn1c(-c2ccc3nc(N)sc3c2)nc2cc(N)ccc21
AC50 [8]: 0.384 µM (active)

CCN(CCCNC(=O)C1CCC(=O)N1Cc1ccc(C)cc1)c1cccc(C)c1 (stereo unspecified)
AC50 [8]: 0.677 µM (active)

CC(C)N1CC(C(=O)Nc2ccc(Br)c(Cl)c2)CC1=O (stereo unspecified)
EC50 [1]: > 53 µM (inactive)
IC50 [2]: > 47.1 µM (inactive)

N#Cc1c(-c2ccco2)cc(-c2ccccn2)nc1N
IC50 (H9c2): 14.3 µM (active)

CC(C)c1cc(-c2cc(-c3ccccc3)on2)nc(NC2CCCC2)n1
AC50 [7]: 10.1 µM (active)

CCCCC(=O)NNC(=O)N1c2ccccc2Sc2ccccc21
AC50 [8]: 0.919 µM (active)

O=C(c1ccc(Cl)cc1)c1c[nH]c(C(=O)NNc2ccccc2)c1
AC50 [7]: 1.34 µM (active)

CCN1CCN(c2cc3nc(C)n(Cc4ccccc4)c(=O)c3cc2NC(=O)c2ccccc2F)CC1
EC50 [3]: 8.79 µM (active)
EC50 [5]: 8.28 µM (active)
EC50 [6]: 8.04 µM (active)

Cc1ccccc1N(C(=O)c1snc(C(N)=O)c1N)C(C(=O)NCc1ccccc1)c1ccc(O)cc1 (stereo unspecified)
IC50 (H9c2): > 79 µM (inactive)

c1ccc2c(CCNc3ncnc4nc[nH]c34)c[nH]c2c1
AC50 [8]: 3.85 µM (active)

CC(C)(C)c1ccc(NC(=O)N2CCCN(c3c(Cl)cncc3Cl)CC2)cc1
AC50 [7]: 0.601 µM (active)

COc1ccc(C(=O)N2CCC3(CC2)CCN(c2ccncc2)CC3)cc1
AC50 (Cytochrome P450 1A2): 39.8 µM (inconclusive)
AC50 (Cytochrome P450 3A4): 15.8 µM (inconclusive)
AC50 (Cytochrome P450 2D6): 15.8 µM (inconclusive)

COC(=O)c1ccc(CSc2nc(O)c3cnn(-c4ccc(C)cc4)c3n2)o1
EC50 [3]: > 120 µM (not active)
EC50 [5]: > 120 µM (not active)
EC50 [6]: 23.9 µM (active)

CC(C)CC(C(=O)NC1CCCCC1)N(Cc1cccs1)C(=O)c1snc(C(N)=O)c1N (stereo unspecified)
IC50 (H9c2): > 79 µM (inactive)

COc1ccccc1C(=O)NC(=O)COC(=O)Cn1[nH]c(=O)c2ccccc2c1=O
IC50 (H9c2): > 79 µM (inactive)

COc1cc(/C=N/NC(=O)C2C3CCCCC32C)cc(Br)c1O (stereo unspecified)
AC50 [8]: 0.272 µM (active)

CCOc1cccc(-c2nn3c(-c4ccco4)nnc3s2)c1
IC50 (H9c2): > 79 µM (inactive)

Cc1nc2cncnc2n(-c2ccccc2)c1=O
AC50 (Cytochrome P450 1A2): 10 µM (inconclusive)
AC50 (Cytochrome P450 3A4): 12.6 µM (inconclusive)
AC50 (Cytochrome P450 2C9): 39.8 µM (inconclusive)

O=C(Nc1ncnc2c1C(c1ccccc1)c1c(ccc3ccccc13)O2)c1ccccc1 (stereo unspecified)
AC50 (INS1): 20.6 µM (active)

CCC(C)(C)n1nnnc1CN(Cc1cccs1)Cc1cc2cc(OC)ccc2nc1O
EC50 [3]: > 120 µM (not active)
EC50 [5]: > 120 µM (not active)
EC50 [6]: 30.6 µM (active)

Nc1nc(OCC2CCCCC2)c2nc[nH]c2n1
EC50 [3]: 15.8 µM (active)
EC50 [5]: 13.7 µM (active)
EC50 [6]: 16.5 µM (active)

Fc1ccc(-c2cc(-c3nnc4n3CCCCC4)c3ccccc3n2)cc1
AC50 (INS1): 11.2 µM (active)

CCC[N+]1(CC#CCC(c2ccccc2)c2ccccc2)CCCCC1
EC50 [9]: 767 nM (active)
EC50 [10]: > 60 µM (not active)
AC50 (INS1): 1.67 µM (active)

Cn1c(=O)n(CCc2ccccc2)c(=O)c2c1nc1n2CCN1Cc1ccco1
IC50 (H9c2): 10.5 µM (active)

O=C1C2C3C=CC(C3)C2C(=O)N1/N=C/c1cn(Cc2ccccc2)c2ccccc12 (stereo unspecified)
EC50 [3]: 12.5 µM (active)
AC50 (Cytochrome P450 2D6): 39.8 µM (inconclusive)
AC50 (Cytochrome P450 2C19): 8.91 µM (inconclusive)
EC50 [5]: 2.2 µM (active)
EC50 [6]: 11 µM (active)

Cc1csc2ncnc(N3CCN(C(S)=Nc4ccc(C(F)(F)F)cc4)CC3)c12
EC50 [3]: > 120 µM (not active)
EC50 [5]: > 120 µM (not active)
EC50 [6]: > 120 µM (not active)

Source: ChEMBL document CHEMBL1201862, “PubChem BioAssay data set” (2004)
